Data set [1] in a line: Plasma, brain interstitial fluid (microdialysis) and whole-brain drug levels after intravenous (IV) and intracalvariosseous (ICO) administration. The format is in vivo, rat. Particulars: for brain-to-plasma ratio (Kp), ICO administration group relative to IV administration group: at 24 hours after administration; for brain-to-plasma ratio (Kp), ICO administration group relative to IV administration group / Cbr (brain drug concentration), ICO administration group relative to IV administration group: fold higher in ICO (5 mg/kg) than IV (0.5 mg/kg); for AUCISF of the ICO administration group compared with the IV administration group: brain interstitial fluid (microdialysis, right hippocampus); for AUCplasma of the ICO administration group compared with the IV administration group: rat plasma; for Cbr (brain drug concentration), ICO administration group relative to IV administration group: whole brain at 24 hours after administration. As to the method: The experiment was performed with 5-week-old male rats weighing […]. To ensure statistical independence, only male rats were used in each experiment.
Eight rats were randomly assigned to the IV and ICO administration groups for each compound and were administered continuously from the next day (n=4).
In order to perform the experiment, the drug administration device of the present disclosure should be installed on the rats in the ICO administration group, and a guide cannula for a microdialysis probe for measuring the concentration of drugs in the brain should be installed on the rats in both the ICO administration group and the IV administration group.
As illustrated in FIG. 9 and FIG. 10, the drug administration device was installed on the left side of the skull of the rats in the ICO administration group, and the guide cannula was installed on the right side, while only the guide cannula was implanted in the skull of the IV administration group.
Then, in order to implant the microdialysis guide cannula, the rats in the ICO and IV administration groups were anesthetized with isoflurane, and a small hole was drilled in the skull, and the guide cannula was inserted into the right hippocampus (see FIGS. 9 and 10). The inserted guide cannula was fixed with dental cement, and the skin wound was sutured, and then the rats were allowed to recover from the surgery in the cage for one day.
Before the drug administration, the membrane of the microdialysis probe was soaked in ethanol and artificial cerebrospinal fluid (aCSF) buffer was perfused through the microdialysis probe at a flow rate of 0.5 μl/min for 1 hour for stabilization.
In addition, the ICO administration group was administered at a dose of 5 mg/kg by filling the drug into the receiving portion 100 of the drug administration device.
The perfusate of the microdialysis probe was collected every 30 minutes for […] between 8 and 24 hours after administration.
The dialysate samples were stored at […] until the time of LC-MS/MS analysis (tandem mass spectrometry).
Blood samples were immediately centrifuged at 10,000 rpm for 10 minutes at 4° C. to recover plasma. In the case of TMZ, blood samples collected after administration were immediately centrifuged and then 10 μl of plasma was acidified with 2 μl of 0.1% formic acid.
Brains were excised 24 hours after administration, and PBS (phosphate buffer saline) corresponding to the weight of each tissue sample was added, followed by homogenization using a homogenizer.
Plasma and homogenized brain tissue samples were stored at […] until LC-MS/MS analysis.
The areas under the curve in plasma (AUCplasma) and interstitial fluid (ISF) concentration-time curves (AUCISF) were determined by noncompartmental analysis using WinNonlin 2.1. Brain concentration (Cbr) in the whole brain at 24 hours was corrected for the plasma volume of the corresponding organ using the Expression below, which was determined using LC-MS/MS.
In the above Expression, Cbr, quant, 24 h is the brain drug concentration (ng/g) at 24 hours quantified by LC-MS/MS, V0 is the plasma volume of the corresponding organ (μl/g), Cplasma, 24 h at 24 hours is the plasma concentration (ng/ml), and the V0 value for the brain was selected as 9.3±1.1 μl/g.
Compared to IV administration, the extent of brain uptake after ICO administration was expressed as brain availability (Fbr), which is similar to systemic bioavailability (F), and was calculated as the ratio of AUCISF, IV and AUCISF, ICO using the Expression below.
In the above Expression, AUCISF,ICO and AUCISF,IV are the areas under the curves in the brain interstitial fluid-time plot (AUCISF) up to 24 hours after ICO administration and IV administration, respectively.

A short description of data set [2]: Near-infrared (NIR) fluorescence imaging of ICG diffusion in the skull after administration through the installed device. Particulars: 24 hours after 50 μl of ICG (500 μg/ml in saline), NIR fluorescence image. In kind it is in vivo, rat. As for the experimental part: Next, the integrity of the drug administration device installed in the skull of the rat was tested by near-infrared (NIR) fluorescence imaging using indocyanine green (IGC).
The diffusion of ICG into the rat skull was observed by the near-infrared fluorescence imaging of the drug administration device installed in the thinned rat skull.
50 μl of ICG (500 μg/ml in saline) was administered to the rat with the drug administration device installed. After 24 hours, the rat was anesthetized, placed in a stereotaxic position, and the scalp was cut. For the ICG-NIR fluorescence imaging, a 780 nm laser with 150 mW output was set at a distance of 80 mm and an angle of 20° from the target through a C-clamp on a Z stand for a laser spot size of 15 mm width and 25 mm length, and fluorescence images were recorded at 1 frame per second using basedcam2 software while NIR light was administered through the 780 nm laser.

The mark [3] stands for this setting: up to 24 h, ICO 5 mg/kg vs IV 0.5 mg/kg.

Counter-ions that a name gives are not always drawn.

`[2H]C([2H])(N)C([2H])([2H])C([2H])([2H])C(=O)O` [GABA, gamma-aminobutyric acid-d6]: in data set [1], the “brain-to-plasma ratio (Kp), ICO administration group relative to IV administration group” value is 3.4 times and the “Cbr (brain drug concentration), ICO administration group relative to IV administration group” value was found to be 3.1 times. Moreover, in data set [1] (setting [3]), the “AUCISF of the ICO administration group compared with the IV administration group” value was “relatively higher” and the “AUCplasma of the ICO administration group compared with the IV administration group” value is listed as “relatively lower”.
For `CCN(C)C(=O)Oc1cccc([C@H](C)N(C)C)c1.O=C(O)C(O)C(O)C(=O)O` [RVG, rivastigmine i-tartrates], in data set [1] (setting [3]), the “AUCISF of the ICO administration group compared with the IV administration group” value is on record as “relatively higher”.
As to `Cc1nc2n(c(=O)c1CCN1CCC(c3noc4cc(F)ccc34)CC1)CCCC2` [RIS, risperidone], in data set [1] (setting [3]), the “AUCISF of the ICO administration group compared with the IV administration group” value is given as “relatively higher” and the “AUCplasma of the ICO administration group compared with the IV administration group” value is “relatively lower”.
As for `CC1(C)C(/C=C/C=C/C=C/C=C2\N(CCCCS(=O)(=O)O)c3ccc4ccccc4c3C2(C)C)=[N+](CCCCS(=O)(=O)[O-])c2ccc3ccccc3c21` [ICG, indocyanine green], in data set [2], the “ICG signal in the left skull where the drug administration device was installed” value is given as “brightly lit” and the “ICG signal in the right skull” value is “no signal was observed”.
Turning to `Cn1nnc2c(C(N)=O)ncn2c1=O` [TMZ, temozolomide], in data set [1], the “brain-to-plasma ratio (Kp), ICO administration group relative to IV administration group” value is on record as 1.9 times and the “Cbr (brain drug concentration), ICO administration group relative to IV administration group” value amounted to 3.4 times. In data set [1] (setting [3]), the “AUCISF of the ICO administration group compared with the IV administration group” value is given as “relatively higher” and the “AUCplasma of the ICO administration group compared with the IV administration group” value was “relatively lower”. Also, in data set [1] (fold higher in ICO than IV group, ICO 5 mg/kg vs IV 0.5 mg/kg), the “AUC ratio (%, AUCISF/AUCplasma), ICO administration group relative to IV administration group” value was found to be 3.0 times.
On to `CN(C)CCCN1c2ccccc2Sc2ccc(Cl)cc21` [CPZ, Chlorpromazine hydrochloride], for which, in data set [1], the “brain-to-plasma ratio (Kp), ICO administration group relative to IV administration group” value turned out to be 35.3 times and the “Cbr (brain drug concentration), ICO administration group relative to IV administration group” value is 85.1 times. Besides, in data set [1] (setting [3]), the “AUCISF of the ICO administration group compared with the IV administration group” value is “no different” and the “AUCplasma of the ICO administration group compared with the IV administration group” value is listed as “relatively lower”.
As to `CC(=O)O[C@H]1C(=O)[C@@]2(C)[C@H]([C@H](OC(=O)c3ccccc3)[C@]3(O)C[C@H](OC(=O)[C@H](O)[C@@H](NC(=O)c4ccccc4)c4ccccc4)C(C)=C1C3(C)C)[C@]1(OC(C)=O)CO[C@@H]1C[C@@H]2O` [PTX, paclitaxel], the “AUCISF after ICO administration” value in data set [1] (ICO 5 mg/kg, brain interstitial fluid, up to 24 h) is 796.55 ng/min/mL. Moreover, the “ISF concentration after IV administration” value in data set [1] (IV 0.5 mg/kg, all time points, brain interstitial fluid) is “below the limit of detection (LOD)”. In data set [1] (setting [3]), the “AUCISF of the ICO administration group compared with the IV administration group” value is listed as “relatively higher” and the “AUCplasma of the ICO administration group compared with the IV administration group” value is reported as “relatively lower”. Further, the “Cbr (brain drug concentration), ICO administration group relative to IV administration group” value in data set [1] is on record as 294.1 times.
